Results as given in patent US5629347A, “Aromatic compounds, pharmaceutical compositions containing them and their use in therapy” (Merck Sharp & Dohme Ltd., priority 1991, dated 1997).
Where a name gives a salt, the structure may show the parent alone. Read-outs that look alike come from different tables or passages of the source.

Biological target: human NK1R (Homo sapiens, UniProt P25103)
Assay: biochemical
Type: binding
Details: for IC50: displacement of 125I-substance P, human NK1R in COS or CHO cells
Method: To express the cloned human neurokinin-1-receotor (NK1R) transiently in COS, the cDNA for the human NK1R was cloned into the expression vector pCDM9 which was derived from pCDM8 (INVITROGEN) by inserting the ampicillin resistance gene (nucleotide 1973 to 2964 from BLUESCRIPT SK+ (trademark, […], La Jolla, Calif., U.S.A.)) into the Sac II site. Transfection of 20 ug of the plasmid DNA into 10 million COS cells was achieved by electroporation in 800 μl of transfection buffer (135 mM NaCl, 1.2 mM CaCl2, 1.2 mM MgCl2, 2.4 mM K2 HPO4, 0.6 mM KH2 PO4, 10 mM glucose, 10 mM N-2-hydroxyethyl-piperazine-N'-2-ethane sulphonic acid (HEPES) pH 7.4) at 260 V and 950 μF using the IBI GENEZAPPER (trademark IBI, New Haven, Conn., U.S.A.). The cells were incubated in 10% fetal calf serum, 2 mM glutamine, 100 U/ml penicillin-streptomycin, and 90% DMEM media (GIBCO, Grand Island, N.Y., U.S.A.) in 5% CO2 at 37° C. for three days before the binding assay.
To establish a stable cell line expressing cloned human NK1R, the cDNA was subcloned into the vector pRcCMV (INVITROGEN). Transfection of 20 ug of the plasmid DNA into CHO cells was achieved by electroporation in 800 μl of transfection buffer supplemented with 0.625 mg/ml Herring sperm DNA at 300 V and 950 μF using the IBI GENEZAPPER (IBI). The transfected cells were incubated. in CHO media [10% fetal calf serum, 100 U/ml penicillin-streptomycin, 2 mM glutamine, 1/500 hypoxanthinethymidine (ATCC), 90% IMDM media (JRH BIOSCIENCES, Lenexa, Kans., U.S.A.), 0.7 mg/ml G418 (GIBCO)] in 5% CO2 at 37° C. until colonies were visible. Each colony was separated and propagated. The cell clone with the highest number of human NK1R was selected for subsequent applications such as drug screening.
The binding assay of human NK1R expressed in either COS or CHO cells is based on the use of ^125 I-substance P (^125 I-SP, from DU PONT, Boston, Mass.) as a radioactively labeled ligand which competes with unlabeled substance P or any other ligand for binding to the human NK1R. […] The tubes were incubated at 4° C. or at room temperature for 1 hour with gentle shaking. The bound radioactivity was separated from unbound radioactivity by GF/C filter (BRANDEL, Gaithersburg, Md.) which was prewetted with 0.1% polyethylenimine. The filter was washed with 3 ml of wash buffer (50 mM Tris pH 7.5, 5 mM MnCl2, 150 mM NaCl) three times and its radioactivity was determined by gamma counter.

Chain of human NK1R (P25103 whole entry): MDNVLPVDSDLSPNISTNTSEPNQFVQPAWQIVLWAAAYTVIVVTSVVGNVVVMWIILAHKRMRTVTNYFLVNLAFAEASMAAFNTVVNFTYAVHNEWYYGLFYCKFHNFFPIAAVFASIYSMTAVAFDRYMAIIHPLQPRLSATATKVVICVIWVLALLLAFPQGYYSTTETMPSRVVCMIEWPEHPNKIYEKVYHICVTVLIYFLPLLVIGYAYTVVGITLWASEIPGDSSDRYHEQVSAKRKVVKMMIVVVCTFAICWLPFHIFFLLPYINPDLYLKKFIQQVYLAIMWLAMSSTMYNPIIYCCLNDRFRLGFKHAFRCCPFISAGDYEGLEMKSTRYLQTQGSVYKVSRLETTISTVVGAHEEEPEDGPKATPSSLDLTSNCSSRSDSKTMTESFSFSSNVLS

Compound | IC50 | further results
O=C(Nc1ccccc1)NC(COCc1cc(C(F)(F)F)cc(C(F)(F)F)c1)C(c1ccccc1)c1ccccc1 (centres unmarked) [Example 43, N-(1-((3',5'-Bis(trifluoromethyl)phenyl)methyloxy)-3,3-diphenylprop-2-yl)-N'-phenylurea] | – | inhibition at 0.3 µM (1 h, @ 03 μM, read-out: Substance P antagonism (%)): 50%
NC(COCc1cccc(I)c1)C(c1ccccc1)c1ccccc1 (centres unmarked) [Example 26, oxalate salt] | 140 nM | –
C=CCNC(COCc1cc(C)cc(C)c1)C(c1ccccc1)c1ccccc1 (centres unmarked) [Example 10, 2-Allylammonium-1-((3,5-dimethylphenyl)methyloxy)-3,3-diphenylpropane oxalate salt] | 70 nM | –
COc1ccccc1CNC(=O)C(N)C(c1ccccc1)c1ccccc1 (centres unmarked) [Example 4, 2-Ammonium-3,3-diphenylpropanoyl-(2-methoxyphenyl)methylamide tosylate salt] | 700 nM | –
Cc1cc(C)cc(COCC(C(c2ccccc2)c2ccccc2)N2CCOCC2)c1 (centres unmarked) [Example 15, 3,3-Diphenyl-1-((3,5-dimethylphenyl)methyloxy)-2-(4-morpholino)propane] | 100 nM | –
CC(c1cccc(Cl)c1)C(N)COCc1cc(C(F)(F)F)cc(C(F)(F)F)c1 (single isomer, unassigned) [71 (diastereomer B), 2-Amino-1-((3,5-bis(trifluoromethyl)phenyl)methyloxy)-3-(3-chlorophenyl)-butane] | – | inhibition at 0.3 µM (1 h, @ 0.3 μM, read-out: Substance P antagonism (%)): 42%
CC(=O)N(C)C(COCc1cc(C)cc(C)c1)C(c1ccccc1)c1ccccc1 (centres unmarked) [Example 37] | 200 nM | –
Cc1ccc(C)c(COCC(N)C(c2ccccc2)c2ccccc2)c1 (centres unmarked) [Example 28, 2-Ammonium-1-((2,5-dimethylphenyl)methyloxy)-3,3-diphenylpropane oxalate salt] | 300 nM | –
Cc1cc(C)cc(COCC(C(c2ccccc2)c2ccccc2)N2CCCCC2)c1 (centres unmarked) [Example 14, 3,3-Diphenyl-1-((3,5-dimethylphenyl)methyloxy)-2-(piperidin-1-yl)propane hydrochloride salt] | 70 nM | –
Cc1cc(C)cc(COCC(C(c2ccccc2)c2ccccc2)N(C)C(=O)c2ccccc2)c1 (centres unmarked) [Example 39, 2-(((N-Methyl)benzamido)-1-((3,5-dimethyl)phenyl)methyloxy)-3,3-diphenylpropane] | 800 nM | –
Cc1cc(C)cc(COCC(NCC(=O)O)C(c2ccccc2)c2ccccc2)c1 (centres unmarked) [Example 45, N-(1-(((3',5'-Dimethyl)phenyl)methyloxy)-3,3-diphenylprop-2-yl)glycine] | 40 nM | –
COC(=O)CNC(COCc1cc(C)cc(C)c1)C(c1ccccc1)c1ccccc1 (centres unmarked) [Example 20, 2-(N-(Carbomethoxymethyl)ammonium)-1-((3,5-dimethylphenyl)methyloxy)-3,3-diphenylpropane tosylate salt] | 40 nM | –
Cc1cc(C)cc(COCC(NCCO)C(c2ccccc2)c2ccccc2)c1 (centres unmarked) [Example 22, 2-(N-(2-Hydroxyethyl)ammonium)-1-((3,5-dimethylphenyl)methyloxy)-3,3-diphenylpropane oxalate salt] | 45 nM | –
COc1ccccc1CNC(=O)C(NC(=O)OC(C)(C)C)C(c1ccccc1)c1ccccc1 (centres unmarked) [Example 3, 2-t-Butoxycarbonylamino-3,3-diphenylpropanoyl-(2-methoxyphenyl)methylamide] | – | inhibition at 10 µM (1 h, @ 10 μM, read-out: Substance P antagonism (%)): 77%
CCCNC(COCc1cc(C)cc(C)c1)C(c1ccccc1)c1ccccc1 (centres unmarked) [Example 8, 2-Propylammonium-1-((3,5-dimethylphenyl)methyloxy)-3,3-diphenylpropane oxalate salt] | 90 nM | –
Cc1cc(CNCC(N)C(c2ccccc2)c2ccccc2)cc(C(F)(F)F)c1 (centres unmarked) [Example 68, 2-Ammonium-3,3-diphenyl-1-((3-methyl, 5-trifluoromethyl)phenyl)methylamino)propane oxalate salt] | 400 nM | –

Second part, led by results:

IC50 | Compound | further results
0.5 nM | CC(N[C@H](COCc1cc(C(F)(F)F)cc(C(F)(F)F)c1)C(c1ccccc1)c1ccccc1)C(N)=O (single isomer, unassigned) [58 (diastereomer B)] | –
2 nM | CNC(=O)CN(C)C(COCc1cc(C(F)(F)F)cc(C(F)(F)F)c1)C(c1ccccc1)c1ccccc1 (centres unmarked) [Example 54, 1-((3,5-Bis(trifluoromethyl)phenyl)methyloxy)-2-((N-((methylcarboxamido)methyl)-N-methyl)amino)-3,3-diphenylpropane monohydrate] | –
22 nM | NC(COCc1cc(Cl)cc(Cl)c1)C(c1ccccc1)c1ccccc1 (centres unmarked) [Example 18, 2-Ammouinm-1-((3,5-dichlorophenyl)methyloxy)-3,3-diphenylpropane tosylate salt] | –
1 nM | COCCNC(=O)CNC(COCc1cc(C(F)(F)F)cc(C(F)(F)F)c1)C(c1ccccc1)c1ccccc1 (centres unmarked) [Example 51, N-(1-((3',5'-Bis(trifluoromethyl)phenyl)methyloxy)-3,3-diphenylprop-2-yl)glycine 2-methoxyethylamide] | –
2.4 nM | Cc1cc(C)cc(COCC(C(c2ccccc2)c2ccccc2)N(C)C)c1 (centres unmarked) [Example 2, 2-Dimethylammonium-1-((3,5-dimethylphenyl)methyloxy)-3,3-diphenylpropane tosylate salt] | –
40 nM | CNC(=O)NC(COCc1cc(C(F)(F)F)cc(C(F)(F)F)c1)C(c1ccccc1)c1ccccc1 (centres unmarked) [Example 42, N-(1-((3',5'-Bis(trifluoromethyl)phenyl)methyloxy)-3,3-diphenylprop-2-yl)-N'-methyl urea] | –
0.8 nM | NC(=O)CN[C@H](COCc1cc(C(F)(F)F)cc(C(F)(F)F)c1)C(c1ccccc1)c1ccccc1 [Example 57, (S)-1-((3',5'-Bis(trifluoromethyl)phenyl)methyloxy)-2-(((carboxamido)methyl)ammonium)-3,3-diphenylpropane oxalate salt] | –
10 nM | CN(C)C(=O)CNC(COCc1cc(C(F)(F)F)cc(C(F)(F)F)c1)C(c1ccccc1)c1ccccc1 (centres unmarked) [Example 48, N-(1-((3',5'-Bis(trifluoromethyl)phenyl)methyloxy)-3,3-diphenylprop-2-yl)glycine dimethylamide hydrochloride salt] | –
0.5 nM | CC(NC(COCc1cc(C(F)(F)F)cc(C(F)(F)F)c1)C(c1ccccc1)c1ccccc1)C(N)=O (single isomer, unassigned) [41 (diastereomer B), 1-((3',5'-Bis(trifluoromethyl)phenyl)methyloxy)-2-((1-(carboxamido)ethyl)ammonium)-3,3-diphenylpropane oxalate salt] | –
15 nM | O=C(O)CNC(COCc1cc(C(F)(F)F)cc(C(F)(F)F)c1)C(c1ccccc1)c1ccccc1 (centres unmarked) [Example 44, N-(1-((3',5'-Bis(trifluoromethyl)phenyl)methyloxy)-3,3-diphenylprop-2-yl)glycine] | –
20 nM | Cc1cc(Br)cc(COCC(N)C(c2ccccc2)c2ccccc2)c1 (centres unmarked) [Example 33, 2-Ammonium-1-((3-bromo-5-methylphenyl)methyloxy)-3,3-diphenylpropane oxalate salt] | –
0.4 nM | NC(=O)CNC(COCc1cc(C(F)(F)F)cc(C(F)(F)F)c1)C(c1ccccc1)c1ccccc1 (centres unmarked) [Example 30, 1-((3,5-Bis(trifluoromethyl)phenyl)methyloxy)-2-((carboxamido)methyl)ammoninm)-3,3-diphenylpropane oxalate salt] | –
4 nM | O=C1CN(C(COCc2cc(C(F)(F)F)cc(C(F)(F)F)c2)C(c2ccccc2)c2ccccc2)CCN1 (centres unmarked) [Example 66, 4-((1-((3,5-Bis(trifluoromethyl)phenyl)methyloxy)-3,3-diphenyl)prop-2-yl)piperazinium-2-one hemi oxalate salt] | –
3 nM | Cc1cc(C)cc(COCC(NCC(N)=O)C(c2ccccc2)c2ccccc2)c1 (centres unmarked) [Example 21, 2-(((Carboxamido)methyl)amino)-1-((3,5-dimethylphenyl)methyloxy)-3,3-diphenylpropane] | –
5.5 nM | Cc1cc(C)cc(COCC(N)C(c2ccccc2)c2ccccc2)c1 (centres unmarked) [Example 1, 2-Ammoninm-1-((3,5-dimethylphenyl)methyloxy)-3,3-diphenylpronane tosylate salt] | –
10 nM | N#CCNC(COCc1cc(C(F)(F)F)cc(C(F)(F)F)c1)C(c1ccccc1)c1ccccc1 (centres unmarked) [Example 34, 1-((3,5-Bis(trifluoromethyl)phenyl)methyloxy)-2-(cyanomethyl)amino-3,3-diphenylpropane] | –
